Consider 31 compounds from patent US20240327430A1 (Breakpoint Therapeutics GmbH, priority 2023, published 2024).

The experiment deals with truncated Polθ protein (Polθ-Hel containing the helicase domain (67-894)) (Homo sapiens (Human), UniProt O75417). Put plainly: Polθ ATPase assay (Biological Assay 1, ADP-Glo luminescence). The experiment is classed as biochemical. The gist of the method:
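Polθ-Hel (0.5 nM) with 500 nM ssDNA oligo in pH 8.8 Tris buffer (5 mM MgCl2, 1 mM DTT) was preincubated with compound 30 min at 23 °C. The reaction ran 60 min after 60 μM ATP was added (stated as the added solution, not final). ADP formed was detected by ADP-Glo luminescence to derive IC50.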

The mark [1] stands for this setting: Polθ-Hel 0.5 nM, DNA substrate 500 nM, ATP 60 μM, 23° C., read-out: Pole ATPase assay IC50.
The mark [2] stands for this setting: Table B, compounds of Experimental Part B, in vitro, read-out: Polθ ATPase assay IC50.

Read-outs that look alike come from different tables or passages of the source. Where only a bound is given, the exact number is not on record here.

Chain of truncated Polθ protein (Polθ-Hel containing the helicase domain (67-894)) (O75417 67-894): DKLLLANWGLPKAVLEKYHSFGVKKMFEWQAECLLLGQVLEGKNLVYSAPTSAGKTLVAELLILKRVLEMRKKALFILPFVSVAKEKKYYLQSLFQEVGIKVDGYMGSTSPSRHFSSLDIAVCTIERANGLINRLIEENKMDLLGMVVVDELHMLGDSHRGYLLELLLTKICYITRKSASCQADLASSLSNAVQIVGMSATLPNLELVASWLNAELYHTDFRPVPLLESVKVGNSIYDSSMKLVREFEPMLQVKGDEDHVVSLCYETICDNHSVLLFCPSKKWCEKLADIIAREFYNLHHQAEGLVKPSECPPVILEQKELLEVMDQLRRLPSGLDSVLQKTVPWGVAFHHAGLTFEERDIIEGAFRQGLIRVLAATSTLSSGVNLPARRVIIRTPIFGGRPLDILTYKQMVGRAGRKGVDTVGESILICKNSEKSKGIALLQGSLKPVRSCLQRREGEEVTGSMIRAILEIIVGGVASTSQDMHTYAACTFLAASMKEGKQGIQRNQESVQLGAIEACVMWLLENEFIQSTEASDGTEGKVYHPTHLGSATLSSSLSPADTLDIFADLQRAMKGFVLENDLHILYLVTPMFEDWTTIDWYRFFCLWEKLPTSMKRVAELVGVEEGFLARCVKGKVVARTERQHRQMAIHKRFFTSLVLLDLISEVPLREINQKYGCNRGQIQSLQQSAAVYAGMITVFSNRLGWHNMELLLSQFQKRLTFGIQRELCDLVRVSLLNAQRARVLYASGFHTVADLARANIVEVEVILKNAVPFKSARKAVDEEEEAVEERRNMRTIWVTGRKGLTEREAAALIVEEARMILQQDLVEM

Usually IC50 stands for the concentration that gives 50% inhibition. As for `COc1cnc(Cl)cc1-c1cc(C)ncc1C(=O)Nc1nc2cnc(N3CCC4(COC4)C3)nc2s1` [Example 76, 2′-chloro-5′-methoxy-6-methyl-N-(5-{2-oxa-6-azaspiro[3.4]octan-6-yl}-[1,3]thiazolo[5,4-d]pyrimidin-2-yl)-[4,4′-bipyridine]-3-carboxamide], the IC50 under setting [1] is less than 100 nM. The same measure, in the same setting: for `COc1cnc(Cl)cc1-c1cc(C)ncc1C(=O)Nc1nc2cnc(NCC(C)(C)O)nc2s1` [Example 77, 2′-chloro-N-{5-[(2-hydroxy-2-methylpropyl)amino]-[1,3]thiazolo[5,4-d]pyrimidin-2-yl}-5′-methoxy-6-methyl-[4,4′-bipyridine]-3-carboxamide] the value was less than 100 nM. Same read-out and setting: as for `COc1cnc(Cl)cc1-c1cc(C)ncc1C(=O)Nc1nc2cnc(NCC(C)C)nc2s1` [Example 78, 2′-chloro-5′-methoxy-6-methyl-N-{5-[(2-methylpropyl)amino]-[1,3]thiazolo[5,4-d]pyrimidin-2-yl}-[4,4′-bipyridine]-3-carboxamide], the figure is less than 100 nM; as for `COc1cnc(Cl)cc1-c1cc(C)ncc1C(=O)Nc1nc2cnc(NC3CCC3)nc2s1` [Example 79, 2′-chloro-N-[5-(cyclobutylamino)-[1,3]thiazolo[5,4-d]pyrimidin-2-yl]-5′-methoxy-6-methyl-[4,4′-bipyridine]-3-carboxamide], less than 100 nM; as for `COc1cnc(Cl)cc1-c1cc(C)ncc1C(=O)Nc1nc2cnc(N3CCC(OC)CC3)nc2s1` [Example 80, 2′-chloro-5′-methoxy-N-[5-(4-methoxypiperidin-1-yl)-[1,3]thiazolo[5,4-d]pyrimidin-2-yl]-6-methyl-[4,4′-bipyridine]-3-carboxamide], less than 100 nM. For `COc1cnc(Cl)cc1-c1cc(C)ncc1C(=O)Nc1nc2cnc(N3CC4(CC(O)C4)C3)nc2s1` [Example 81, 2′-chloro-N-(5-{6-hydroxy-2-azaspiro[3.3]heptan-2-yl}-[1,3]thiazolo[5,4-d]pyrimidin-2-yl)-5′-methoxy-6-methyl-[4,4′-bipyridine]-3-carboxamide], under setting [1], the IC50 was less than 100 nM. On the same count and under the same terms, as for `COc1cnc(Cl)cc1-c1cc(C)ncc1C(=O)Nc1nc2cnc(N3CC4(CCOC4)C3)nc2s1` [Example 82, 2′-chloro-5′-methoxy-6-methyl-N-(5-{6-oxa-2-azaspiro[3.4]octan-2-yl}-[1,3]thiazolo[5,4-d]pyrimidin-2-yl)-[4,4′-bipyridine]-3-carboxamide], the figure is less than 100 nM; as for `COc1cnc(Cl)cc1-c1cc(C)ncc1C(=O)Nc1nc2ccc(S(C)(=N)=O)cc2s1` (stereo not shown) [Example 83, 2′-chloro-N-{6-[imino(methyl)oxo-λ^6-sulfanyl]-1,3-benzothiazol-2-yl}-5′-methoxy-6-methyl-[4,4′-bipyridine]-3-carboxamide], less than 100 nM; as for `COc1cnc(Cl)cc1-c1cc(C)ncc1C(=O)Nc1nc2ccc(N3CCCS3(=O)=O)cc2s1` [Example 84], less than 100 nM. Same read-out and setting: for `COc1cnc(Cl)cc1-c1cc(C)ncc1C(=O)Nc1nc2ccc(N3CC[C@@H](O)CC3=O)cc2s1` [Example 85, 2′-chloro-N-{6-[(4R)-4-hydroxy-2-oxopiperidin-1-yl]-1,3-benzothiazol-2-yl}-5′-methoxy-6-methyl-[4,4′-bipyridine]-3-carboxamide] the value was less than 100 nM; for `COc1cnc(Cl)cc1-c1cc(C)ncc1C(=O)Nc1nc2ccc(N3CCN(C)CC3=O)cc2s1` [Example 86, 2′-chloro-5′-methoxy-6-methyl-N-[6-(4-methyl-2-oxopiperazin-1-yl)-1,3-benzothiazol-2-yl]-[4,4′-bipyridine]-3-carboxamide], less than 100 nM. Still for that read-out and setting: as for `COc1cnc(Cl)cc1-c1cc(C)ncc1C(=O)Nc1nc2cnc(C3=CCOCC3)nc2s1` [Example 87, 2′-chloro-N-[5-(3,6-dihydro-2H-pyran-4-yl)-[1,3]thiazolo[5,4-d]pyrimidin-2-yl]-5′-methoxy-6-methyl-[4,4′-bipyridine]-3-carboxamide], the figure is less than 100 nM; as for `COc1cnc(C(F)(F)F)cc1-c1cc(C)ncc1C(=O)Nc1nc2cnc(N3CCC(O)CC3)nc2s1` [Example 88, N-[5-(4-hydroxypiperidin-1-yl)-[1,3]thiazolo[5,4-d]pyrimidin-2-yl]-5′-methoxy-6-methyl-2′-(trifluoromethyl)-[4,4′-bipyridine]-3-carboxamide], less than 100 nM; as for `COc1cnc(C(F)F)cc1-c1cc(C)ncc1C(=O)Nc1nc2cnc(N3CCOCC3)nc2s1` [Example 89], less than 100 nM.

Turning to `COc1cnc(Cl)cc1-c1cc(C)ncc1C(=O)Nc1nc2cnc(C(F)(F)F)nc2s1` [Example 90, 2′-chloro-5′-methoxy-6-methyl-N-[5-(trifluoromethyl)-[1,3]thiazolo[5,4-d]pyrimidin-2-yl]-[4,4′-bipyridine]-3-carboxamide], the IC50 under setting [1] is less than 100 nM. The same measure, in the same setting: for `COc1cnc(Cl)cc1-c1cc(C)ncc1C(=O)Nc1nc2cnc(C)nc2s1` [Example 91, 2′-chloro-5′-methoxy-6-methyl-N-{5-methyl-[1,3]thiazolo[5,4-d]pyrimidin-2-yl}-[4,4′-bipyridine]-3-carboxamide] the value was less than 100 nM; for `COc1cnc(C)cc1-c1cc(C)ncc1C(=O)Nc1nc2cnc(N3CCOCC3)nc2s1` [Example 92, 5′-methoxy-2′,6-dimethyl-N-[5-(morpholin-4-yl)-[1,3]thiazolo[5,4-d]pyrimidin-2-yl]-[4,4′-bipyridine]-3-carboxamide], less than 100 nM.

As to `COc1cnc(F)cc1-c1cc(C)ncc1C(=O)Nc1nc2cnc(N3CCOCC3)nc2s1` [Example 93, 2′-fluoro-5′-methoxy-6-methyl-N-[5-(morpholin-4-yl)-[1,3]thiazolo[5,4-d]pyrimidin-2-yl]-[4,4′-bipyridine]-3-carboxamide], the IC50 under setting [1] is less than 100 nM. On the same count and under the same terms, as for `COc1cnc(Cl)cc1-c1cc(C)ncc1C(=O)Nc1nc2cnc(N3CCCCC3=O)nc2s1` [Example 94, 2′-chloro-5′-methoxy-6-methyl-N-[5-(2-oxopiperidin-1-yl)-[1,3]thiazolo[5,4-d]pyrimidin-2-yl]-[4,4′-bipyridine]-3-carboxamide], the figure is less than 100 nM. For `COc1cnc(Cl)cc1-c1cc(C)ncc1C(=O)Nc1nc2cnc(NC[C@@H](C)O)nc2s1` [Example 95, 2′-chloro-N-(5-{[(2R)-2-hydroxypropyl]amino}-[1,3]thiazolo[5,4-d]pyrimidin-2-yl)-5′-methoxy-6-methyl-[4,4′-bipyridine]-3-carboxamide], the IC50 under setting [2] is less than 100 nM. On the same count and under the same terms, as for `COc1cnc(Cl)cc1-c1cc(C)ncc1C(=O)Nc1nc2cnc(NC[C@H](C)O)nc2s1` [Example 96, 2′-chloro-N-(5-{[(2S)-2-hydroxypropyl]amino}-[1,3]thiazolo[5,4-d]pyrimidin-2-yl)-5′-methoxy-6-methyl-[4,4′-bipyridine]-3-carboxamide], the figure is less than 100 nM; as for `COc1cnc(Cl)cc1-c1cc(C)ncc1C(=O)Nc1nc2cnc(N3CC(C)(OC)C3)nc2s1` [Example 97, 2′-chloro-5′-methoxy-N-[5-(3-methoxy-3-methylazetidin-1-yl)-[1,3]thiazolo[5,4-d]pyrimidin-2-yl]-6-methyl-[4,4′-bipyridine]-3-carboxamide], less than 100 nM; as for `COc1cnc(Cl)cc1-c1cc(C)ncc1C(=O)Nc1nc2c(Br)cccc2s1` [Example 99, N-(4-bromo-1,3-benzothiazol-2-yl)-2′-chloro-5′-methoxy-6-methyl-[4,4′-bipyridine]-3-carboxamide], less than 100 nM.

On to `COc1cnc(Cl)cc1-c1cc(C)ncc1C(=O)Nc1nc2c(CCC(=O)N(C)C)cccc2s1` [Example 100, 2′-chloro-N-{4-[2-(dimethylcarbamoyl)ethyl]-1,3-benzothiazol-2-yl}-5′-methoxy-6-methyl-[4,4′-bipyridine]-3-carboxamide], for which the IC50 under setting [2] was less than 100 nM. Still for that read-out and setting: for `COc1cnc(Cl)cc1-c1cc(C)ncc1C(=O)Nc1nc2cc(OCC#N)ccc2s1` [Example 101, 2′-chloro-N-[5-(cyanomethoxy)-1,3-benzothiazol-2-yl]-5′-methoxy-6-methyl-[4,4′-bipyridine]-3-carboxamide] the value was less than 100 nM; for `CNC(=O)C(F)(F)Oc1ccc2sc(NC(=O)c3cnc(C)cc3-c3cc(Cl)ncc3OC)nc2c1` [Example 102, 2′-chloro-N-{5-[difluoro(methylcarbamoyl)Methoxy]-1,3-benzothiazol-2-yl}-5′-methoxy-6-methyl-[4,4′-bipyridine]-3-carboxamide], less than 100 nM. The same measure, in the same setting: as for `COc1cnc(Cl)cc1-c1cc(C)ncc1C(=O)Nc1nc2cc(Br)ccc2s1` [Example 103, N-(5-bromo-1,3-benzothiazol-2-yl)-2′-chloro-5′-methoxy-6-methyl-[4,4′-bipyridine]-3-carboxamide], the figure is less than 100 nM; as for `COc1cnc(Cl)cc1-c1cc(C)ncc1C(=O)Nc1nc2cc(OC(F)(F)C(=O)N(C)C)ccc2s1` [Example 104, 2′-chloro-N-{5-[(dimethylcarbamoyl)difluoromethoxy]-1,3-benzothiazol-2-yl}-5′-methoxy-6-methyl-[4,4′-bipyridine]-3-carboxamide], less than 100 nM; as for `CNC(=O)c1ccc2sc(NC(=O)c3cnc(C)cc3-c3cc(Cl)ncc3OC)nc2c1` [Example 105, 2′-chloro-5′-methoxy-6-methyl-N-[5-(methylcarbamoyl)-1,3-benzothiazol-2-yl]-[4,4′-bipyridine]-3-carboxamide], less than 100 nM. On the same count and under the same terms, for `COc1ccc2sc(NC(=O)c3cnc(C)cc3-c3cc(Cl)ncc3OC)nc2c1` [Example 106, 2′-chloro-5′-methoxy-N-(5-methoxy-1,3-benzothiazol-2-yl)-6-methyl-[4,4′-bipyridine]-3-carboxamide] the value was less than 100 nM. In the case of `COCCNC(=O)c1ccc2sc(NC(=O)c3cnc(C)cc3-c3cc(Cl)ncc3OC)nc2c1` [Example 107, 2′-chloro-5′-methoxy-N-{5-[(2-methoxyethyl)carbamoyl]-1,3-benzothiazol-2-yl}-6-methyl-[4,4′-bipyridine]-3-carboxamide], the IC50 under setting [2] is less than 100 nM.
